Measured values: patent US12528818B2, “Compositions and methods for inhibition of RAS” (Leidos Biomedical Research, Inc., priority 2021, dated 2026)

Tested on: pERK in NCI-H358 cells
Test: Cell-based pERK HTRF assay (pERK inhibition in H358 cells)
Conditions: Homo sapiens, NCI-H358, 0.5 h, pERK inhibition IC50, NCI-H358 cells, 30 min incubation; read-out: PERK in H358 cell

Compound | IC50
C=CC(=O)N1CCC(N(C)c2nc(OC[C@@H]3CCCN3C)nc3c(F)c(-c4ccc(F)c5sc(N)c(C#N)c45)c(C(F)(F)F)cc23)[C@H]1C (stereo partly drawn) [Compound 400] | < 0.1 µM
C=CC(=O)N1CC[C@@H](N(C)c2nc(OC[C@@]34CCCN3C[C@H](F)C4)nc3c(F)c(-c4ccc(F)c5sc(N)c(C#N)c45)c(C(F)(F)F)cc23)[C@H]1COC [Compound 401] | < 0.1 µM
C=CC(=O)N1CCC(N(C)c2nc(OC[C@@]34CCCN3C[C@H](F)C4)nc3c(F)c(-c4ccc(F)c5sc(N)c(C#N)c45)ccc23)[C@H]1COC (stereo partly drawn) [Compound 402] | < 0.1 µM
C=CC(=O)N1CC[C@@H](N(CC)c2nc(OC[C@@]34CCCN3C[C@H](F)C4)nc3c(F)c(-c4ccc(F)c5sc(N)c(C#N)c45)c(C(F)(F)F)cc23)[C@H]1C [Compound 403] | < 0.1 µM
C=CC(=O)N1CCC(N(C)c2nc(OC[C@@]34CCCN3C[C@H](F)C4)nc3c(C#N)c(-c4ccc(F)c5sc(N)c(C#N)c45)ccc23)[C@H]1C (stereo partly drawn) [Compound 404] | 0.1 to 1 µM
C=CC(=O)N1CCC(N(CC)c2nc(OC[C@@H]3CC4(CC4)CN3C)nc3c(F)c(-c4ccc(F)c5sc(N)c(C#N)c45)c(C(F)(F)F)cc23)[C@H]1C (stereo partly drawn) [Compound 405] | < 0.1 µM
C=CC(=O)N1C[C@H](C)N(c2nc(OC[C@@H]3C[C@@H](F)CN3C)nc3c(F)c(-c4ccc(F)c5sc(N)c(C#N)c45)c(C(F)(F)F)cc23)C[C@H]1C [Compound 406] | < 0.1 µM
C=CC(=O)N1CCC(N(C)c2nc(OC[C@@H]3C[C@@H](OC)CN3C)nc3c(F)c(-c4ccc(F)c5sc(N)c(C#N)c45)c(C(F)(F)F)cc23)[C@H]1C (stereo partly drawn) [Compound 407] | < 0.1 µM
C=CC(=O)N1C[C@H](C)N(c2nc(OC[C@@H]3C[C@@H](OC)CN3C)nc3c(F)c(-c4ccc(F)c5sc(N)c(C#N)c45)c(C(F)(F)F)cc23)C[C@H]1C [Compound 408] | < 0.1 µM
C=CC(=O)N1CCC(N(C)c2nc(OC[C@@H]3CC4(CC4)CN3C)nc3c(F)c(-c4ccc(F)c5sc(N)c(C#N)c45)c(C(F)(F)F)cc23)[C@H]1C (stereo partly drawn) [Compound 409] | < 0.1 µM
C=CC(=O)N1C[C@H](C)N(c2nc(OC[C@@H]3CC4(CC4)CN3C)nc3c(F)c(-c4ccc(F)c5sc(N)c(C#N)c45)c(C(F)(F)F)cc23)C[C@H]1C [Compound 410, 4-(4-((2S,5R)-4-acryloyl-2,5-dimethylpiperazin-1-yl)-8-fluoro-2-(((S)-5-methyl-5-azaspiro[2.4]heptan-6-yl)methoxy)-6-(trifluoromethyl)quinazolin-7-yl)-2-amino-7-fluorobenzo[b]thiophene-3-carbonitrile] | < 0.1 µM
C=CC(=O)N1CCC(N(CC)c2nc(OC[C@@]34CCCN3C[C@H](F)C4)nc3c(C#N)c(-c4ccc(F)c5sc(N)c(C#N)c45)c(Cl)cc23)[C@H]1C (stereo partly drawn) [Compound 411] | < 0.1 µM
C=CC(=O)N1CCC(N(CC)c2nc(OC[C@@]34CCCN3C[C@H](F)C4)nc3c(F)c(-c4ccc(F)c5sc(N)c(C#N)c45)ccc23)[C@H]1COC (stereo partly drawn) [Compound 412] | 0.1 to 1 µM
C=CC(=O)N1CCC(N(C)c2nc(OC[C@@]34CCCN3C[C@H](F)C4)nc3c(F)c(-c4ccc(F)c5sc(N)nc45)ccc23)[C@H]1C (stereo partly drawn) [Compound 413] | 0.1 to 1 µM
C=CC(=O)N1CC[C@@H](N(CC)c2nc(OC[C@@]34CCCN3C[C@H](F)C4)nc3cc(-c4ccc(F)c5sc(N)c(C#N)c45)c(F)cc23)[C@H]1C [Compound 414] | < 0.1 µM
C=CC(=O)N1CCC(N(CC)c2nc(OC[C@@]34CCCN3C[C@H](F)C4)nc3c(C#N)c(-c4ccc(F)c5sc(N)c(C#N)c45)ccc23)[C@H]1C (stereo partly drawn) [Compound 415, 4-((1-acryloyl-2-methylpyrrolidin-3-yl)(ethyl)amino)-7-(2-amino-3-cyano-7-fluorobenzo[b]thiophen-4-yl)-2-(((2R,7aS)-2-fluorotetrahydro-1H-pyrrolizin-7a(5H)-yl)methoxy)quinazoline-8-carbonitrile] | < 0.1 µM
C=CC(=O)N1CCC(N(C)c2nc(OC[C@@H]3CCCN3C)nc3c(F)c(-c4ccc(F)c5sc(N)c(C#N)c45)c(Cl)cc23)[C@H]1COC (stereo partly drawn) [Compound 416] | < 0.1 µM
C=CC(=O)N1CCC(N(C)c2nc(OC[C@@H]3CCCN3C)nc3cc(-c4ccc(F)c5sc(N)c(C#N)c45)c(F)cc23)[C@H]1C (stereo partly drawn) [Compound 417] | 0.1 to 1 µM
C=CC(=O)N1CC[C@@H](N(CC)c2nc(OC[C@@]34CCCN3C[C@H](F)C4)nc3c(F)c(-c4ccc(F)c5sc(N)c(C#N)c45)c(Cl)cc23)[C@H]1C [Compound 418] | 0.1 to 1 µM
C=CC(=O)N1CCC(N(C)c2nc(OC[C@@H]3CCCN3C)nc3c(F)c(-c4ccc(F)c5sc(N)c(C#N)c45)c(Cl)cc23)[C@H]1C (stereo partly drawn) [Compound 419] | < 0.1 µM
C=CC(=O)N1CCC(N(C)c2nc(OC[C@@H]3CCCN3C)nc3c(F)c(-c4ccc(F)c5sc(N)c(C#N)c45)ccc23)[C@H]1C (stereo partly drawn) [Compound 420] | < 0.1 µM
C=CC(=O)N1CCC(N(CC)c2nc(OC[C@@]34CCCN3C[C@H](F)C4)nc3c(F)c(-c4ccc(F)c5sc(N)c(C#N)c45)ccc23)[C@H]1C (stereo partly drawn) [Compound 421] | < 0.1 µM
C=CC(=O)N1C[C@H](C)N(c2nc(OC[C@@]34CCCN3C[C@H](F)C4)nc3c(Cl)c(-c4ccc(F)c5sc(N)c(C#N)c45)c(C#N)cc23)C[C@H]1C [Compound 422] | < 0.1 µM

Compound | IC50
C=CC(=O)N1CCC(N(C)c2nc(OC[C@@H]3C[C@@H](F)CN3C)nc3c(F)c(-c4ccc(F)c5sc(N)c(C#N)c45)ccc23)[C@H]1COC (stereo partly drawn) [Compound 423] | < 0.1 µM
C=CC(=O)N1CCC(N(C)c2nc(OC[C@@H]3C[C@@H](OC)CN3C)nc3c(F)c(-c4ccc(F)c5sc(N)c(C#N)c45)ccc23)[C@H]1COC (stereo partly drawn) [Compound 424] | < 0.1 µM
C=CC(=O)N1CCC(N(C)c2nc(OC[C@@]34CCCN3C[C@H](F)C4)nc3c(Cl)c(-c4ccc(F)c5sc(N)c(C#N)c45)c(C#N)cc23)[C@H]1C (stereo partly drawn) [Compound 425] | 0.1 to 1 µM
C=CC(=O)N1CCC(N(C)c2nc(OC[C@@H]3CCCN3C)nc3c(F)c(-c4ccc(F)c5sc(N)c(C#N)c45)c(C(F)(F)F)cc23)C1COC (stereo partly drawn) [Compound 426, 4-(4-((1-acryloyl-2-(methoxymethyl)pyrrolidin-3-yl)(methyl)amino)-8-fluoro-2-(((S)-1-methylpyrrolidin-2-yl)methoxy)-6-(trifluoromethyl)quinazolin-7-yl)-2-amino-7-fluorobenzo[b]thiophene-3-carbonitrile] | < 0.1 µM
C=CC(=O)N1CCC(N(CC)c2nc(OC[C@@H]3C[C@@H](OC)CN3C)nc3c(F)c(-c4ccc(F)c5sc(N)c(C#N)c45)c(C(F)(F)F)cc23)[C@H]1COC (stereo partly drawn) [Compound 427] | < 0.1 µM
C=CC(=O)N1CCC(N(CC)c2nc(OC[C@@]34CCCN3C[C@H](F)C4)nc3c(C#N)c(-c4ccc(F)c5sc(N)c(C#N)c45)ccc23)[C@H]1COC (stereo partly drawn) [Compound 428] | 0.1 to 1 µM
C=CC(=O)N1CCC(N(C)c2nc(OC[C@@H]3C[C@@H](F)CN3C)nc3c(F)c(-c4ccc(F)c5sc(N)c(C#N)c45)ccc23)[C@H]1C (stereo partly drawn) [Compound 429] | < 0.1 µM
C=CC(=O)N1CCC(N(C)c2nc(OC[C@@H]3C[C@@H](OC)CN3C)nc3c(F)c(-c4ccc(F)c5sc(N)c(C#N)c45)ccc23)[C@H]1C (stereo partly drawn) [Compound 430] | < 0.1 µM
C=CC(=O)N1CCC(N(CC)c2nc(OC[C@@]34CCCN3C[C@H](F)C4)nc3cc(-c4ccc(F)c5sc(N)c(C#N)c45)ccc23)[C@H]1C (stereo partly drawn) [Compound 431] | < 0.1 µM
C=CC(=O)N1CCC(N(C)c2nc(OC[C@@H]3CCCN3C)nc3c(F)c(-c4ccc(F)c5sc(N)c(C#N)c45)ccc23)[C@H]1COC (stereo partly drawn) [Compound 432] | 0.1 to 1 µM
C=CC(=O)N1CCC(N(C)c2nc(OC[C@@H]3CC4(CC4)CN3C)nc3c(F)c(-c4ccc(F)c5sc(N)c(C#N)c45)ccc23)[C@H]1COC (stereo partly drawn) [Compound 433] | < 0.1 µM
C=CC(=O)N1CCC(N(C)c2nc(OC[C@@H]3CC4(CC4)CN3C)nc3c(F)c(-c4ccc(F)c5sc(N)c(C#N)c45)ccc23)[C@H]1C (stereo partly drawn) [Compound 436] | < 0.1 µM
C=CC(=O)N1CC[C@@H](N(CC)c2nc(OC[C@@]34CCCN3C[C@H](F)C4)nc3cc(-c4ccc(F)c5sc(N)c(C#N)c45)c(F)cc23)[C@H]1COC [Compound 437] | 0.1 to 1 µM
C=CC(=O)N1CCC(N(CC)c2nc(OC[C@@H]3CCCN3C)nc3c(F)c(-c4ccc(F)c5sc(N)c(C#N)c45)c(C(F)(F)F)cc23)[C@H]1COC (stereo partly drawn) [Compound 438] | < 0.1 µM
C=CC(=O)N1CC[C@@H](N(CC)c2nc(OC[C@@]34CCCN3C[C@H](F)C4)nc3cc(-c4ccc(F)c5sc(N)c(C#N)c45)c(C#N)cc23)[C@H]1COC [Compound 439] | 0.1 to 1 µM
C=CC(=O)N1CCC(N(CC)c2nc(OC[C@@]34CCCN3C[C@H](F)C4)nc3cc(-c4ccc(F)c5sc(N)c(C#N)c45)ccc23)[C@H]1COC (stereo partly drawn) [Compound 440] | 0.1 to 1 µM
C=CC(=O)N1CCC(N(C)c2nc(OC[C@@H]3CCCN3C)nc3cc(-c4ccc(F)c5sc(N)c(C#N)c45)c(F)cc23)[C@H]1COC (stereo partly drawn) [Compound 441] | 0.1 to 1 µM
C=CC(=O)N1CC[C@@H](N(CC)c2nc(OC[C@@]34CCCN3C[C@H](F)C4)nc3c(F)c(-c4ccc(F)c5sc(N)c(C#N)c45)c(C(F)(F)F)cc23)[C@H]1COC [Compound 442] | < 0.1 µM
C=CC(=O)N1CCC(N(C)c2nc(OC[C@@H]3C[C@@H](F)CN3C)nc3c(F)c(-c4ccc(F)c5sc(N)c(C#N)c45)c(C(F)(F)F)cc23)[C@H]1COC (stereo partly drawn) [Compound 443] | < 0.1 µM
C=CC(=O)N1CCC(N(C)c2nc(OC[C@@H]3C[C@@H](F)CN3C)nc3cc(-c4ccc(F)c5sc(N)c(C#N)c45)c(C#N)cc23)[C@H]1COC (stereo partly drawn) [Compound 444] | < 0.1 µM
C=CC(=O)N1CCC(N(CC)c2nc(OC[C@@H]3CC4(CC4)CN3C)nc3c(F)c(-c4ccc(F)c5sc(N)c(C#N)c45)c(C(F)(F)F)cc23)[C@H]1COC (stereo partly drawn) [Compound 445] | < 0.1 µM
C=CC(=O)N1CCC(N(C)c2nc(OC[C@@H]3CC4(CC4)CN3C)nc3cc(-c4ccc(F)c5sc(N)c(C#N)c45)c(C#N)cc23)[C@H]1COC (stereo partly drawn) [Compound 446] | 0.1 to 1 µM
